Measurements published in US11597703B2, “Caspase inhibitors and methods of use thereof” (Histogen Inc., priority 2019, dated 2023).
Each block holds one compound with its values, some of them ahead of it.

Legend:
[1] = biological target: T1, Caspase 6 (Homo sapiens, UniProt P55212); experiment: Caspase 6 enzymatic inhibition assay, IC50; type: biochemical; conditions: read-out: Caspase 6 enzyme inhibition IC50
T1 construct: purchased Enzo Biosciences
T1 sequence (P55212 24-179 limits assumed): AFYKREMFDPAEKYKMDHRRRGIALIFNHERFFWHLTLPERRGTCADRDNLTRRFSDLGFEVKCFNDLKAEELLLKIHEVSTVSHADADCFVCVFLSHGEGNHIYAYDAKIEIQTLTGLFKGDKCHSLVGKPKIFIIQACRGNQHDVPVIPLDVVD
T1 sequence (P55212 194-293 limits assumed): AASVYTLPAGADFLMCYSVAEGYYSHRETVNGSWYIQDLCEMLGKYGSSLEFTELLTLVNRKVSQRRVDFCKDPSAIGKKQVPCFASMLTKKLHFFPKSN
Procedure: (§1) Human caspases were purchased from Enzo Biosciences and used according to the manufacturer's instructions. An exemplary caspase assay, for Caspase-1, is provided below:
(§2) Enzymatic assays were conducted for Caspase-3, 6 and 7 activity according to the manufacture's instructions.

[2] = biological target: T2, Caspase 7 (Homo sapiens, UniProt P55210); experiment: Caspase 7 enzymatic inhibition assay, IC50; type: biochemical; conditions: read-out: Caspase 7 enzyme inhibition IC50
T2 construct: purchased Enzo Biosciences
T2 sequence (P55210 24-198 limits assumed): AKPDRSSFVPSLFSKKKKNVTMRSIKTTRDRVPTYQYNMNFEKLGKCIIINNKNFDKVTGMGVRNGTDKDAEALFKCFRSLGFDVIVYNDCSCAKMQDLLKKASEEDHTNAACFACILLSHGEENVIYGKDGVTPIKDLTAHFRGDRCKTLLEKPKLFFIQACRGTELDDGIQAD
T2 sequence (P55210 207-303 limits assumed): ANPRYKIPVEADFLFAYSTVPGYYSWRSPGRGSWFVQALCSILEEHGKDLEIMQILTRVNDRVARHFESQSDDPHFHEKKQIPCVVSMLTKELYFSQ
Procedure: as §1, §2

[3] = biological target: T3, Caspase-3 (Homo sapiens, UniProt P42574); experiment: Caspase-3 enzymatic inhibition assay, IC50; type: biochemical; conditions: read-out: Caspase 3 enzyme inhibition IC50
T3 construct: purchased Enzo Biosciences
T3 sequence (P42574 29-175 limits assumed): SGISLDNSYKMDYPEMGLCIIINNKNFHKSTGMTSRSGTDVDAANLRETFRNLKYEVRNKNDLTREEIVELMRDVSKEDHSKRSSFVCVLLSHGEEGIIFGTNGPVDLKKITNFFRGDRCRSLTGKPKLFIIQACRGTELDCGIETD
T3 sequence (P42574 176-277 limits assumed): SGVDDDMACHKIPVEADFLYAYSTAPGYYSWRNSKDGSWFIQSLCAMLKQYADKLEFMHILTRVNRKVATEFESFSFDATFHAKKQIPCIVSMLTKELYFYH
Procedure: as §1, §2

[4] = biological target: T4, Caspase-1 (Homo sapiens, UniProt P29466); experiment: Caspase-1 enzyme inhibition assay (Ac-YVAD-pNA substrate), IC50; type: biochemical
T4 construct: purchased Enzo Biosciences
T4 sequence (P29466 120-297 limits assumed): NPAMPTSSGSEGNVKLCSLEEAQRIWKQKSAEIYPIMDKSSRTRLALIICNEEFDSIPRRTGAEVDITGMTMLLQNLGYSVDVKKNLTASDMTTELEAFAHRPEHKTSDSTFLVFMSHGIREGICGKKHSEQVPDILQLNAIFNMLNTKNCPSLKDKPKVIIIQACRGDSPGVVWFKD
T4 sequence (P29466 317-404 limits assumed): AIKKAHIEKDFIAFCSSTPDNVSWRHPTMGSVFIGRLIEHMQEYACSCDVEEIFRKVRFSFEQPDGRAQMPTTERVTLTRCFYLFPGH
Procedure: as §1
Caspase-1 was diluted to 10 U/μl in assay buffer consisting of 50 mM HEPES, pH 7.4, 100 mM NaCl, 0.1% CHAPS, 1 mM EDTA, 10% glycerol and 10 mM DTT.
45 μl of assay buffer was added into ½ volume microtiter plate. The plate was allowed to equilibrate to assay temperature. 5 μl of Caspase-1 (10 U/μl) was added to each appropriate well. Two 2 blank wells containing assay buffer alone without Caspase-1 were included on the plate.
The reaction was started by the addition of 50 μl Ac-YVAD-pNA substrate, for a final substrate concentration of 200 μM. The reaction was continuously monitored at 405 nm. The data was graphed as OD405 nm vs time, and the slope was determined over the linear portion of the curve. The rates in OD/min were converted to substrate/min using an extinction coefficient for p-nitroaniline of 10,500M-1 cm-1, and were adjusted for pathlength of sample. […]

[5] = Rodent model of ulcerative colitis induced by TNBS; type: in vivo, Sprague-Dawley rats
Procedure: Compounds of the present invention were tested by oral administration in a rodent model of ulcerative colitis (UC). Ulcerative colitis was induced in Sprague-Dawley rats by instillation of 48 mg/kg […], (TNBS), through the rectum. Testing included 4 active treatment groups and one vehicle control group.
Effect of TNBS-Induced UC in Vehicle Treated Control Group, (Group 1):
Rats were administered of 0.5% vehicle carboxy methylcellulose, (CMC), twice daily starting 24 hours after the instillation of TNBS.
At the termination of the study on DAY 7, the average colon weight in the diseased rats was 5.904±2.208 g, the average colon length was 11.0±1.4 cm and the average distal colon width was 3.1±1.0 cm. Severe adhesions involving multiple intestinal loops, severe stricture resulting in proximal colon distension, ulcers of 6.4±0.4 cm in length, and colonic wall thickness of 3.5±0.8 mm combined to yield an overall colonic score of 11.5±0.8 in the diseased rats. […] Subacute inflammation (sub/mucosal and transmural/serosal were graded separately) was characterized by infiltration and aggregation of neutrophils, eosinophils, lymphocytes, plasma cells, and macrophages. Mucosal necrosis was characterized by damage to, necrosis of, or complete loss of colonic glands. Erosions were characterized by coagulative necrosis or loss of surface epithelium superficial to the muscularis mucosae. Submucosal edema was characterized by expansion of the submucosa by clear space or pale eosinophilic fluid, variably accompanied by dilation of lymphatic vessels and similar edematous expansion of the lamina propria. Epithelial hyperplasia was characterized by elongation of colonic glands and increased numbers of epithelial mitotic figures.

[6] = 10 mg/kg once daily oral, starting 24 hours after TNBS
[7] = Group 2, prednisolone 10 mg/kg once daily oral, DAY 7

Compound: C[C@]12C=CC(=O)C=C1CC[C@@H]1[C@@H]2[C@@H](O)C[C@@]2(C)[C@H]1CC[C@]2(O)C(=O)CO [Prednisolone, reference compound]
- all measured colon parameters [5, 6]: significantly improved
- animal health as reflected by body weight [5, 6]: improved animal health by DAY 4
- average inhibition of the histological parameters [5, 6]: 40%
- reduction in the overall colonic score [5, 6]: 67%
- colon histology: Edema, Submucosal, Mean [5, 7]: 2.3
- colon histology: Erosion/ Ulceration, Mean [5, 7]: 2.9
- colon histology: Hyperplasia, Epithelial, Mean [5, 7]: 2.9
- colon histology: Necrosis, Mucosal/ Gland Loss, Mean [5, 7]: 2.9
- colon histology: SUM Score, Mean [5, 7]: 16.3
- colon histology: Subacute Inflammation, Mucosal/ Submucosal, Mean [5, 7]: 3.5
- colon histology: Subacute Inflammation, Transmural/ Serosal, Mean [5, 7]: 2.8
- average animal weight, Mean ([5]; Group 2, prednisolone 10 mg/kg once daily oral, study day 0): 235 g
- average animal weight, Mean ([5]; Group 2, prednisolone 10 mg/kg once daily oral, study day 1): 232 g
- average animal weight, Mean ([5]; Group 2, prednisolone 10 mg/kg once daily oral, study day 2): 221 g
- average animal weight, Mean ([5]; Group 2, prednisolone 10 mg/kg once daily oral, study day 3): 223 g
- average animal weight, Mean ([5]; Group 2, prednisolone 10 mg/kg once daily oral, study day 4): 223 g
- average animal weight, Mean ([5]; Group 2, prednisolone 10 mg/kg once daily oral, study day 5): 227 g
- average animal weight, Mean ([5]; Group 2, prednisolone 10 mg/kg once daily oral, study day 6): 227 g
- average animal weight, Mean ([5]; Group 2, prednisolone 10 mg/kg once daily oral, study day 7): 229 g
- average animal weight, Mean ([5]; Group 2, prednisolone 10 mg/kg once daily oral, study day −1): 249 g
- average animal weight, Mean ([5]; Group 2, prednisolone 10 mg/kg once daily oral, study day −5): 222 g

Compound: CC(=O)c1ccc(NC(=O)C(=O)N[C@@H](C)C(=O)N[C@@H](CCC(=O)O)C(=O)COc2c(F)c(F)cc(F)c2F)cc1 [Example 30, (S)-4-((S)-2-(2-((4-acetylphenyl)amino)-2-oxoacetamido)propanamido)-5-oxo-6-(2,3,5,6-tetrafluorophenoxy)hexanoic acid]
- IC50 [1]: ≥ 1 µM
- IC50 [2]: ≥ 1 µM
- IC50 [3]: ≥ 1 µM
- IC50 [4]: ≤ 0.01 µM

Compound: C[C@H](NC(=O)C(=O)Nc1c(F)cccc1F)C(=O)N[C@H](CCC(=O)O)C(=O)COc1c(F)c(F)cc(F)c1F [Example 38, (R)-4-((S)-2-(2-((2,6-difluorophenyl)amino)-2-oxoacetamido)propanamido)-5-oxo-6-(2,3,5,6-tetrafluorophenoxy)hexanoic acid]
- IC50 [1]: ≥ 1 µM
- IC50 [2]: ≥ 1 µM
- IC50 [3]: ≥ 1 µM
- IC50 [4]: ≤ 0.01 µM

Compound: C[C@H](NC(=O)C(=O)Nc1c(F)cccc1F)C(=O)N[C@@H](CCC(=O)O)C(=O)COc1cc(C(F)(F)F)nc(C(F)(F)F)n1 [Example 33, (S)-6-((2,6-bis(trifluoromethyl)pyrimidin-4-yl)oxy)-4-((S)-2-(2-((2,6-difluorophenyl)amino)-2-oxoacetamido)propanamido)-5-oxohexanoic acid]
- IC50 [1]: ≥ 1 µM
- IC50 [2]: ≥ 1 µM
- IC50 [3]: ≥ 1 µM
- IC50 [4]: ≤ 0.01 µM

Compound: C[C@H](NC(=O)C(=O)Nc1c(F)cccc1F)C(=O)N[C@@H](CCC(=O)OCc1ccccc1)C(=O)COc1c(F)c(F)cc(F)c1F [Example 28, benzyl(S)-4-((S)-2-(2-((2,6-difluorophenyl)amino)-2-oxoacetamido)propanamido)-5-oxo-6-(2,3,5,6-tetrafluorophenoxy)hexanoate]
- IC50 [1]: ≥ 1 µM
- IC50 [2]: ≥ 1 µM
- IC50 [3]: ≥ 1 µM
- IC50 [4]: ≤ 0.01 µM

Compound: Cc1ccccc1NC(=O)C(=O)N[C@@H](C)C(=O)N[C@@H](CCC(=O)O)C(=O)COc1c(F)c(F)cc(F)c1F [Example 21, (S)-4-((S)-2-(2-((2-methylphenyl)amino)-2-oxoacetamido)propanamido)-5-oxo-6-(2,3,5,6-tetrafluorophenoxy)hexanoic acid]
- IC50 [1]: ≥ 1 µM
- IC50 [2]: ≥ 1 µM
- IC50 [3]: ≥ 1 µM
- IC50 [4]: ≤ 0.01 µM

The remaining lines, values ahead:

- IC50 [1]: ≥ 1 µM
- IC50 [2]: ≥ 1 µM
- IC50 [3]: ≥ 1 µM
- IC50 [4]: ≤ 0.01 µM
Compound: C[C@H](NC(=O)C(=O)Nc1ccc(Cl)cn1)C(=O)N[C@@H](CCC(=O)O)C(=O)COc1c(F)c(F)cc(F)c1F [Example 29, (S)-4-((S)-2-(2-((5-chloropyridin-2-yl)amino)-2-oxoacetamido)propanamido)-5-oxo-6-(2,3,5,6-tetrafluorophenoxy)hexanoic acid]

- IC50 [1]: ≥ 1 µM
- IC50 [2]: ≥ 1 µM
- IC50 [3]: ≥ 1 µM
- IC50 [4]: ≤ 0.01 µM
Compound: C[C@H](NC(=O)C(=O)Nc1cccc(-c2nnn[nH]2)c1)C(=O)N[C@@H](CCC(=O)O)C(=O)COc1c(F)c(F)cc(F)c1F [Example 31, (S)-4-((S)-2-(2-((3-(1H-tetrazol-5-yl)phenyl)amino)-2-oxoacetamido)propanamido)-5-oxo-6-(2,3,5,6-tetrafluorophenoxy)hexanoic acid]

- IC50 [1]: ≥ 1 µM
- IC50 [2]: ≥ 1 µM
- IC50 [3]: ≥ 1 µM
- IC50 [4]: ≤ 0.01 µM
Compound: C[C@H](NC(=O)C(=O)Nc1ccccn1)C(=O)N[C@@H](CCC(=O)O)C(=O)COc1c(F)c(F)cc(F)c1F [Example 39, (S)-5-oxo-4-((S)-2-(2-oxo-2-(pyridin-2-ylamino)acetamido)propanamido)-6-(2,3,5,6-tetrafluorophenoxy)hexanoic acid]

- IC50 [1]: ≥ 1 µM
- IC50 [2]: ≥ 1 µM
- IC50 [3]: ≥ 1 µM
- IC50 [4]: ≤ 0.01 µM
Compound: COc1ccc(NC(=O)C(=O)N[C@@H](C)C(=O)N[C@@H](CCC(=O)O)C(=O)COc2c(F)c(F)cc(F)c2F)cc1 [Example 24, (S)-4-((S)-2-(2-((4-methyoxyphenyl)amino)-2-oxoacetamido)propanamido)-5-oxo-6-(2,3,5,6-tetrafluorophenoxy)hexanoic acid]

- IC50 [1]: ≥ 1 µM
- IC50 [2]: ≥ 1 µM
- IC50 [3]: ≥ 1 µM
- IC50 [4]: ≤ 0.01 µM
Compound: Cc1cc(C)nc(NC(=O)C(=O)N[C@@H](C)C(=O)N[C@@H](CCC(=O)O)C(=O)COc2c(F)c(F)cc(F)c2F)n1 [Example 41, (S)-4-((S)-2-(2-((4,6-dimethylpyrimidin-2-yl)amino)-2-oxoacetamido)propanamido)-5-oxo-6-(2,3,5,6-tetrafluorophenoxy)hexanoic acid]

- IC50 [1]: ≥ 1 µM
- IC50 [2]: ≥ 1 µM
- IC50 [3]: ≥ 1 µM
- IC50 [4]: ≤ 0.01 µM
Compound: COc1cccc(NC(=O)C(=O)N[C@@H](C)C(=O)N[C@@H](CCC(=O)O)C(=O)COc2c(F)c(F)cc(F)c2F)c1 [Example 23, (S)-4-((S)-2-(2-((3-methyoxyphenyl)amino)-2-oxoacetamido)propanamido)-5-oxo-6-(2,3,5,6-tetrafluorophenoxy)hexanoic acid]

- IC50 [1]: ≥ 1 µM
- IC50 [2]: ≥ 1 µM
- IC50 [3]: ≥ 1 µM
- IC50 [4]: ≤ 0.01 µM
Compound: Cc1ccc(NC(=O)C(=O)N[C@@H](C)C(=O)N[C@@H](CCC(=O)O)C(=O)COc2c(F)c(F)cc(F)c2F)nc1 [Example 25]
